From US10039776B2, “Hepato-protective beverage composition” (priority 2013, dated 2018)

Columns and labels:
[1] = tested on: Male Wistar albino rats, alcohol induced sub-acute hepatotoxicity; assay: Alcohol induced sub-acute hepatotoxicity in rats: evaluation of hepato-protective activity (% protection, % synergism); assay type: in vivo
Source text: • 1. Hepato-protection: the ability to reduce stress and prevent damage to the liver. • 2. Synergistic hepato-protective effect: where the net hepato-protective effect of a combination is greater than the sum of the hepato-protective effects of the parts. • 3. Primary hepato-protective agent; 18α-Glycyrrhizin, 18β-Glycyrrhizin, or a combination thereof. • 4. Complimentary hepato-protective agent: sugar, sugar alcohol, or a combination thereof. • 5. Effective amount: the amount of each hepato-protective agent that must be included in a beverage to result in a net hepato-protective synergistic effect. Effective amounts include: • a. For 18α-Glycyrrhizin, a mass concentration range of 0.04% to 1.0%. • b. For 18β-Glycyrrhizin, a mass concentration range of 0.04% to 1.0%. • c. For sugar, a mass concentration range of 0.5% to 3.5%. • d. For sugar alcohol, a mass concentration range of 0.5% to 3.5%. • 6. Effective proportion: the proportional amount of how many units of complimentary hepato-protective agent should be added per unit of primary hepato-protective agent to result in a hepato-protective synergistic effect. An effective proportion is in the range of 1:2 to 175:2 (units of complimentary hepato-protective agent to units of primary hepato-protective agent). […] All animal experiments were conducted for a period of one month by per oral administration of 2.5 g/kg dose of alcohol.
The following tables 10 and 11 further illustrate hepatoprotective activity of the supplied alcoholic formulations in comparison with standard alcoholic drink in rat model, when fed orally for 4 weeks and also illustrate any synergistic effect of the ingredients. Hepatoprotection (HP) Calculation % Protection=1−[(T-NS)/(AL-NS)]×100 T=Mean value of drug treated, NS=Mean value of normal control, AL=Mean value of alcohol alone
Distilled ethanol was obtained from Bengal Chemicals, West Bengal, India, Biochemical kits like AST, ALT, ALKP and total protein were obtained from Span Diagnostics Ltd. Surat, India. Time course study of oxidative and nitrosative stress and antioxidant enzymes in K2Cr2O7-induced nephrotoxicity. BMC Nephrol., 6:4], TNF-α was estimated by standard procedures as mentioned in Rat TNF-α ELIS A kit (BioLegend, Inc. San Diego, Calif. USA).
Male Wistar albino rats weighing 150-200 g are procured from local registered traders (CPCSEA Regd No. 1443/po/6/4/CPCSEA), Kolkata, India, and were acclimatized for 7 days at standard housing condition (26° C.±2° C., 60-70% RFT with 12±1 hours light and dark cycle). Animals were fed with commercially available diet (Upton India Pvt. Ltd, India) and water ad-libitum during the experiment period.
Male Wistar albino rats weighing 150-200 g are procured and randomly divided into groups consisting of six animals in each group. Sub-acute toxicity is induced by alcohol in rats by oral administration of 25% alcohol (2.5 gm/kg/day, p.o.) for 28 days and this group served as the negative control and the positive control group received distilled water only.
All drug solutions were prepared in 15-40% aqueous alcohol, adjusting the pH in the range of 4.0-9.0 for evaluation of hepato-protective activity. This solution is further diluted with distilled water to obtain 25% aqueous alcoholic solution and administered orally by gavage to different rats group of step (a).
On day 28th day the animals are anaesthetized with ether and blood samples are collected by cardiac puncture and the serum is used for the assay of marker enzymes serum alanine aminotransferase (ALT), aspartate aminotransferase (AS′T), alkaline phosphatase (ALP). The rats are sacrificed by exposure to an overdose of ether, immediately after the collection of blood; their livers are removed, washed in cold saline. Part of the liver is used for preparation of liver homogenate in phosphate buffer (pH 7.4). […]

[2] = tested on: superoxide dismutase (SOD); details: erythritol-added group; cited from earlier work
[3] = cited from earlier work
[4] = sugar alcohol or sugar alone at 1%, alcohol 2.5 g/kg p.o. one month
[5] = sugar alcohol or sugar alone at 2.5%, alcohol 2.5 g/kg p.o. one month

Compound | ALT etc % Prot. [1, 4] [%] | GSH % Prot. [1, 4] [%] | MDA % Prot. [1, 4] [%] | SOD etc % Prot. [1, 4] [%] | TNF-α % Prot. [1, 4] [%] | ALT etc % Prot. [1, 5] [%] | GSH % Prot. [1, 5] [%] | MDA % Prot. [1, 5] [%] | SOD etc % Prot. [1, 5] [%] | TNF-α % Prot. [1, 5] [%] | also measured
18β-Glycyrrhizin [Sample Code D] | – | – | – | – | – | – | – | – | – | – | TNF-α % Prot. ([1]; alcohol 2.5 g/kg/day p.o. 28 days, composition fixed by sample/example, listed as Example 4): 7.64%; GSH % Prot. ([1]; alcohol 2.5 g/kg/day p.o. 28 days, liver homogenate, composition fixed by sample/example, listed as Example 4): 3.29%; MDA % Prot. ([1]; hepatic MDA, alcohol 2.5 g/kg/day p.o. 28 days, composition fixed by sample/example, listed as Example 4): 15.97%; SOD etc % Prot. ([1]; mean of SOD, CAT and GPx, alcohol 2.5 g/kg/day p.o. 28 days, composition fixed by sample/example, listed as Example 4): 11.45%; ALT etc % Prot. ([1]; mean of serum ALT, AST and ALKP, alcohol 2.5 g/kg/day p.o. 28 days, composition fixed by sample/example, listed as Example 4): 8.38%
OC[C@@H](O)[C@@H](O)CO [Ery, D-Erythritol] | 17.84 | 18.71 | 24.71 | 17.94 | 16.57 | 32.13 | 37.29 | 48.61 | 36.29 | 35.96 | –
OC[C@H]1O[C@@H](O[C@H]2[C@H](O)[C@@H](O)C(O)O[C@@H]2CO)[C@H](O)[C@@H](O)[C@H]1O (stereo partly drawn) [Lac, Lactose] | 8.21 | 4.36 | 7.70 | 6.78 | 8.19 | 17.41 | – | 21.47 | 17.38 | 15.26 | –
OC[C@@H](O)[C@@H](O)[C@H](O)[C@H](O)CO [Sample Code A, D-Mannitol] | – | – | – | – | – | – | – | – | – | – | TNF-α % Prot. ([1]; alcohol 2.5 g/kg/day p.o. 28 days, composition fixed by sample/example, listed as Example 2): 7.19%; GSH % Prot. ([1]; alcohol 2.5 g/kg/day p.o. 28 days, liver homogenate, composition fixed by sample/example, listed as Example 2): 10.35%; MDA % Prot. ([1]; hepatic MDA, alcohol 2.5 g/kg/day p.o. 28 days, composition fixed by sample/example, listed as Example 2): 19.17%; SOD etc % Prot. ([1]; mean of SOD, CAT and GPx, alcohol 2.5 g/kg/day p.o. 28 days, composition fixed by sample/example, listed as Example 2): 12.71%; ALT etc % Prot. ([1]; mean of serum ALT, AST and ALKP, alcohol 2.5 g/kg/day p.o. 28 days, composition fixed by sample/example, listed as Example 2): 12.26%
OC[C@@H](O)[C@@H](O)[C@H](O)[C@H](O)CO [Sample Code C, D-Mannitol] | – | – | – | – | – | – | – | – | – | – | TNF-α % Prot. ([1]; alcohol 2.5 g/kg/day p.o. 28 days, composition fixed by sample/example, listed as 3): 16.74%; TNF-α % Prot. ([1]; alcohol 2.5 g/kg/day p.o. 28 days, composition fixed by sample/example, listed as Example 3): 31.46%; GSH % Prot. ([1]; alcohol 2.5 g/kg/day p.o. 28 days, liver homogenate, composition fixed by sample/example, listed as 3): 20.06%; GSH % Prot. ([1]; alcohol 2.5 g/kg/day p.o. 28 days, liver homogenate, composition fixed by sample/example, listed as Example 3): 31.53%; MDA % Prot. ([1]; hepatic MDA, alcohol 2.5 g/kg/day p.o. 28 days, composition fixed by sample/example, listed as 3): 31.63%; MDA % Prot. ([1]; hepatic MDA, alcohol 2.5 g/kg/day p.o. 28 days, composition fixed by sample/example, listed as Example 3): 50.80%; SOD etc % Prot. ([1]; mean of SOD, CAT and GPx, alcohol 2.5 g/kg/day p.o. 28 days, composition fixed by sample/example, listed as 3): 19.32%; SOD etc % Prot. ([1]; mean of SOD, CAT and GPx, alcohol 2.5 g/kg/day p.o. 28 days, composition fixed by sample/example, listed as Example 3): 35.83%; ALT etc % Prot. ([1]; mean of serum ALT, AST and ALKP, alcohol 2.5 g/kg/day p.o. 28 days, composition fixed by sample/example, listed as 3): 70.37%; ALT etc % Prot. ([1]; mean of serum ALT, AST and ALKP, alcohol 2.5 g/kg/day p.o. 28 days, composition fixed by sample/example, listed as Example 3): 29.71%
OC[C@H]1O[C@@](CO)(O[C@H]2O[C@H](CO)[C@@H](O)[C@H](O)[C@H]2O)[C@@H](O)[C@@H]1O [Suc, Sucrose] | 6.70 | 6 | 8.27 | 5.16 | 6.13 | 13.89 | 11.63 | 18.92 | 10.49 | 14.18 | –
OC[C@@H](O)[C@H](O)[C@@H](O)CO [Xyl, D-Xylitol] | 17.62 | 19.76 | 26.9 | 18.91 | 15.77 | 26.72 | 35.57 | 45.38 | 36.88 | 30.05 | –
O=C[C@H](O)[C@@H](O)[C@H](O)CO [Xyls, Xylose] | 8.06 | 6.23 | 6.28 | 7.83 | 6.44 | 14.73 | 11.84 | 15.38 | 19.1 | 13.98 | –
OC[C@@H](O)[C@@H](O)CO [erythritol] | – | – | – | – | – | – | – | – | – | – | increase of SOD activity [2]: 2-5 times
CCO [ethanol] | – | – | – | – | – | – | – | – | – | – | time to peak blood alcohol concentration ([3]; fasting state): ≤ 30 min; ingested alcohol degraded to acetaldehyde ([3]; human being): 95%; ingested alcohol excreted unchanged ([3]; human being): 5%; share of alcohol metabolism accounted for by liver ([3]; in vivo): ~90%; alcohol metabolized per hour ([3]; typical adult, printed 'g of alcohol, hour'): 7 to 10 g
